Measured values: patent US10799521B2, “Use of icaritin in preparing medicament for preventing or treating hematocytopenia” (Lunan Pharmaceutical Group Corporation, priority 2013, dated 2020)

Tested on: mice receiving 4 Gy of ^60Co radiation
Experiment: Effect on the number of blood cells in mice receiving 4 Gy of ^60Co radiation
Type: in vivo, Kunming mice
Conditions: 4 Gy ^60Co irradiated mice; ip once a day for 10 days; epimedium extract 3.5 ml/kg/d, icaritin 10 mg/kg/d
Description: Mice in each group, except for the normal group (10 mice), were radiated with 4 Gy of ^60Co by one-time systemic radiation with an absorbed dose of 4 Gy and an absorbed dose rate of 0.88 Gy/min. Blood was sampled at days 3, 7 and 10 after the radiation, respectively, from orbital vein for the whole blood cell count. The mice of which the number of white blood cells was lower than 3.0×10^9/L or the number of platelets was lower than 500×10^9/L in two consecutive whole blood cell counts were excluded, and the remaining mice were used to be tested.
The mice which met the requirements of the experiment after the radiation were randomly divided into the following model control group, epimedium extract group and icaritin group, with 10 animals in each group and half male and half female. Each group was treated or administered as follows.
Group 1, the normal group: administered by intraperitoneal injection with 0.9% normal saline in an administration volume of 10 ml/kg;
Group 2, the model control group: administered by intraperitoneal injection with 0.9% normal saline in an administration volume of 10 ml/kg; […]
Each group was administered once a day for totally 10 days. […] After the test was ended, blood was sampled from abdominal aorta for routine blood test, and the total number of white blood cells and the total number of platelets were determined.

COc1ccc(-c2oc3c(CC=C(C)C)c(O)cc(O)c3c(=O)c2O)cc1 [Icaritin]
Platelets: 596.2 ± 72.5^#$ 10^9/L
White blood cells: 4.225 ± 0.51^##$ 10^9/L
